The values below are quoted from earlier work in US20070028930A1, “Active agent and formulations to minimize or alleviate bladder urgency and irritation and/or to enhance sexual function” (Delithe Natural Products Inc., priority 2005, published 2007).

For the data set, the system named is bladder. The settings on record: 10 mg/kg dose, rats.

Turning to `CNCC[C@H](Oc1cccc2ccccc12)c1cccs1` [Duloxetine], the “efficacy in in vivo bladder studies” value was “effective”.
